# Structures can show the parent of a compound that is named as a salt. Where two headings read alike, the source gives them in different places.
# Assays:
# [1] = system: GWI rats; details: for pattern separation ability (exploration of novel vs familiar object on P2): GWI rats
# Description: The animals were then treated 5 times a week with 5-amino-2,3-dihydro-1,4-phthalazinedione or VEH for 8 weeks. […] The animals are then subjected to cognitive and mood function tests starting from the fifth week of treatment.
# (§1) Administration of 5-amino-2,3-dihydro-1,4-phthalazinedione or VEH: Treatment was given for 8 weeks (5 times/week) via oral gavage, commencing in the 5th month after exposure to GMIR chemicals and stress. The doses of 5-amino-2,3-dihydro-1,4-phthalazinedione employed were 40 mg/kg, 80 mg/kg and 160 mg/kg.
# (§2) Behavioral tests for assessing cognitive and mood function: We examined animals in all groups through stress-free behavioral tests. We used a Pattern Separation Test (PST) to assess cognitive function and a Sucrose Preference Test (SPT) to assess mood function.
# In this test, each rat successively explored two different sets of identical objects (object types 1 and 2) placed on distinct types of floor patterns (Patterns 1 and 2 [P1 and P2]) for 5 minutes each in the two acquisition trials (separated by 30 minutes). Thirty minutes later, in the testing phase (Trial-3), each rat explored an object from trial 2 (which is now a familiar object) and an object from Trial-1 (which is now a novel object) placed on the floor pattern employed in trial 2 (P2).
# FIGS. 1B-1F compare percentages of object exploration time spent with the familiar object on pattern 2 (Fa on P2) and the novel object on pattern 2 (NO of P2) in different animal groups (n=11-14/group).
# [2] = system: GWI rats
# Description: Time-line of various procedures for animals in cohorts 1 and 2: Animals were exposed daily to GWIR-chemicals and stress for 28 days, and were subjected to a survival period of 4 months between exposure and treatment. The animals were then treated 5 times a week with 5-amino-2,3-dihydro-1,4-phthalazinedione or VEH for 8 weeks. […] The animals are then subjected to cognitive and mood function tests starting from the fifth week of treatment. Finally, euthanasia and tissue harvesting was performed after 8 weeks of treatment.
# (§3) Exposure of animals to GWIR-chemicals and stress: Animals were exposed daily to the following chemicals for 28 days: pyridostigmine bromide (PB) at 2 mg/kg/day (via oral gavage), DEET at 60 mg/kg/day (via dermal application) and permethrin at 0.2 mg/kg/day (via dermal application). In addition, animals were subjected daily to 15 minutes of restraint stress using rat restrainers during the above 28-day period.
# (§4) Survival period between exposure and treatment: Following the exposure to GMIR chemicals and stress, animals were maintained in the vivarium for four months in regular cages (two per cage) with ad libitum access to food and water. Administration of 5-amino-2,3-dihydro-1,4-phthalazinedione or VEH: Treatment was given for 8 weeks (5 times/week) via oral gavage, commencing in the 5th month after exposure to GMIR chemicals and stress. The doses of 5-amino-2,3-dihydro-1,4-phthalazinedione employed were 40 mg/kg, 80 mg/kg and 160 mg/kg.
# as §2
# This test comprised four days of monitoring. On day 1, rats were housed individually and given free access to two identical bottles containing 1% sucrose solution. Rats were trained to adapt to sucrose solution for 24 hours. On day 2, one bottle was replaced with a new bottle containing regular water for 24 hours. On day 3, rats were deprived of water and food for 23 hours, and then on day 4, rats were given free access to two bottles: one containing 100 ml of sucrose solution and another containing 100 ml of regular vyater. An hour later, the consumed volume in both bottles was recorded.
# [3] = system: oxidative stress response and antioxidant genes in the hippocampus of GWI rats
# Description: The animals were then treated 5 times a week with 5-amino-2,3-dihydro-1,4-phthalazinedione or VEH for 8 weeks. […] Finally, euthanasia and tissue harvesting was performed after 8 weeks of treatment.
# as §1
# Analyses of oxidative stress: The hippocampal tissues obtained from animals belonging to cohort 1 were used for the following measurements. First, we analyzed the oxidative stress response and the expression of antioxidant genes using the Rat Oxidative Stress Response PCR Array from Qiagen. We analyzed the expression of 84 key genes involved in oxidative stress response and antioxidant activity in the hippocampus of animals belonging to different groups using quantitative real time PCR (qRT-PCR) to ascertain the effects of 5-amino-2,3-dihydro-1,4-phthalazinedione treatment on oxidative stress.
# (i) Expression of oxidative stress response and antioxidant genes: We analyzed the expression of 84 key genes involved in oxidative stress response and antioxidant activity in the hippocampus of animals belonging to different groups using quantitative real time PCR (qRTPCR).
# [4] = system: GWI rats; details: hippocampal tissue extracts
# Description: (§5) Time-line of various procedures for animals in cohorts 1 and 2: Animals were exposed daily to GWIR-chemicals and stress for 28 days, and were subjected to a survival period of 4 months between exposure and treatment. The animals were then treated 5 times a week with 5-amino-2,3-dihydro-1,4-phthalazinedione or VEH for 8 weeks. […] Finally, euthanasia and tissue harvesting was performed after 8 weeks of treatment.
# as §3
# Survival period between exposure and treatment: Following the exposure to GMIR chemicals and stress, animals were maintained in the vivarium for four months in regular cages (two per cage) with ad libitum access to food and water. […]
# Analyses of oxidative stress: The hippocampal tissues obtained from animals belonging to cohort 1 were used for the following measurements. […] Second, we measured lipid peroxidation through quantification of malondialdehyde. […]
# [5] = system: inflammatory cytokines in hippocampal tissues of GWI rats; details: hippocampal tissue;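 further: relative cytokine levels by 16-cytokine plate array in hippocampus of rats given 28 days of GWI-related chemicals plus restraint stress, treated after a 4-month interval, tissue harvested after 8 weeks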
# Description: as §5, §3, §4
# Analyses of inflammation: The hippocampal tissues obtained from animals belonging to cohort 1 were also used to measure the relative levels of inflammatory cytokines in different groups of animals. We employed the Rat Cytokine Plate Array from Signosis, which facilitated analyses of 16 rat cytokines in a high-throughput manner. The cytokines included: tumor necrosis factor-alpha (TNF-α), interleukin=1 alpha (IL-1α), interleukin-1 beta (IL-1β), vascular endothelial growth factor (VEGF), fibroblast growth factor beta (FGFβ), interferon gamma (IFNγ), interleukin=5 (IL-5), interleukin=6 (IL-6), interleukin=15 (IL-15), leptin, monocyte chemoattractant protein=1 (MCP-1), IFN-gamma-inducible protein 10 (IP-10 or CXCL10), stem cell factor (SCF), Regulated on Activation, Normal T Cell Expressed and Secreted (Rantes), Macrophage inflammatory protein 1 alpha (MIP-1α) and transforming growth factor-beta (TGFβ).
# Analyses of inflammation: The hippocampal tissues obtained from animals were used for measurement of the relative levels of inflammatory cytokines in different groups of animals. We employed “The Rat Cytokine Plate Array” from Signosis, which facilitated analyses of 16 rat cytokines in a high-throughput manner. The cytokines included: TNF-α, IL-1α, IL-1β, VEGF, FGFβ, , IFNγ, IL-5, IL-6, IL-15, leptin, MCP-1, IP-10 (or CXCL10), SCF, Rantes, MIP-1α and TGFβ.
# [6] = GWI + MSL 40 mg/Kg, oral gavage 5 times/week for 8 weeks
# [7] = column headed GWI + MSL 160 mg/Kg, oral gavage 5 times/week for 8 weeks
# [8] = last treatment column, head prints no dose, oral gavage 5 times/week for 8 weeks
smiles,measurement,setting,value
"Nc1cccc2c(=O)[nH][nH]c(=O)c12 [MSL, 5-amino-2,3-dihydro-1,4-phthalazinedione, monosodium salt]",pattern separation ability (exploration of novel vs familiar object on P2),[1]; 40 mg/kg oral gavage,remained impaired
same,pattern separation ability (exploration of novel vs familiar object on P2),[1]; 80 mg/kg oral gavage,remained impaired
same,pattern separation ability (exploration of novel vs familiar object on P2),[1]; 160 mg/kg oral gavage,displayed an ability for pattern separation
same,total object exploration time between groups in Trial-3,"[1]; GWI rats, 40, 80 and 160 mg/Kg groups vs naive and VEH, one-way ANOVA",did not show ditierences between groups
same,preference for sucrose-containing water over regular water,[2]; 40 mg/kg oral gavage,remained impaired
same,preference for sucrose-containing water over regular water,[2]; 80 mg/kg oral gavage,exhibited a clear preference for drinking sucrose-containing water over regular water
same,preference for sucrose-containing water over regular water,[2]; 160 mg/kg oral gavage,exhibited a clear preference for drinking sucrose-containing water over regular water
same,total volume (normal water+sucrose-containing water) consumed,"[2]; all dose groups vs naive and VEH, one-way ANOVA",did not show differences between groups
same,expression of 20 oxidative stress genes increased in GWI rats,[3]; 80 mg/kg,normalized to control levels
same,expression of 20 oxidative stress genes increased in GWI rats,[3]; 160 mg/kg,normalized to control levels
same,"expression of 4 oxidative stress response genes (Prdx6, Sod2, Sqstm1, Srxn1)",[3]; vs GWI rats receiving VEH,completely normalized
same,MDA concentration,"[4]; 40 mg/kg, p<0.05",higher concentration of MDA than naive control rats
same,MDA concentration,[4]; 160 mg/kg,reduced MDA concentration than GWI rats receiving VEH
same,FGF-beta Mean ± S.E.M.,[5]; [6],0.17 ± 0.05
same,IFN-gamma Mean ± S.E.M.,[5]; [6],0.19 ± 0.05
same,IL-1alpha Mean ± S.E.M.,[5]; [6],0.17 ± 0.05
same,IL-1 beta Mean ± S.E.M.,[5]; [6],0.38 ± 0.05
same,IL-5 Mean ± S.E.M.,[5]; [6],0.19 ± 0.05
same,IL-6 Mean ± S.E.M.,[5]; [6],0.23 ± 0.05
same,IL-10 Mean ± S.E.M.,[5]; [6],0.085 ± 0.02
same,IL-15 Mean ± S.E.M.,[5]; [6],0.13 ± 0.05
same,LEPTIN Mean ± S.E.M.,[5]; [6],0.40 ± 0.05
same,MCP-1 Mean ± S.E.M.,[5]; [6],0.09 ± 0.05
same,MIP-1 alpha Mean ± S.E.M.,[5]; [6],0.06 ± 0.05
same,Rantes (CCL5) Mean ± S.E.M.,[5]; [6],0.15 ± 0.05
same,SCF Mean ± S.E.M.,[5]; [6],0.32 ± 0.05
same,TNF-alpha Mean ± S.E.M.,[5]; [6],0.15 ± 0.02
same,VEGF Mean ± S.E.M.,[5]; [6],0.19 ± 0.05
same,FGF-beta,[5]; [7],0.21 ± 0.03
same,IFN-gamma,[5]; [7],0.23 ± 0.03
same,IL-1alpha,[5]; [7],0.21 ± 0.03
same,IL-1 beta,[5]; [7],0.42 ± 0.06
same,IL-5,[5]; [7],0.22 ± 0.03
same,IL-6,[5]; [7],0.28 ± 0.02
same,IL-10,[5]; [7],0.103 ± 0.02
same,IL-15,[5]; [7],0.14 ± 0.02
same,LEPTIN,[5]; [7],0.50 ± 0.09
same,MCP-1,[5]; [7],0.13 ± 0.02
same,MIP-1 alpha,[5]; [7],0.07 ± 0.01
same,Rantes (CCL5),[5]; [7],0.17 ± 0.03
same,SCF,[5]; [7],0.36 ± 0.06
same,TNF-alpha,[5]; [7],0.19 ± 0.03
same,VEGF,[5]; [7],0.22 ± 0.03
same,concentration of MIP-1α,"[5]; GWI rats, decreases not significant statistically",reduced the concentration of MIP-1α
same,concentration of 16 cytokines between groups,"[5]; naive, GWI + VEH and GWI rats receiving different doses",no significant differences
same,FGF-beta Mean ± S.E.M.,[5]; [8],0.18 ± 0.03
same,IFN-gamma Mean ± S.E.M.,[5]; [8],0.28 ± 0.03
same,IL-1alpha Mean ± S.E.M.,[5]; [8],0.17 ± 0.01
same,IL-1 beta Mean ± S.E.M.,[5]; [8],0.39 ± 0.06
same,IL-5 Mean ± S.E.M.,[5]; [8],0.19 ± 0.04
same,IL-6 Mean ± S.E.M.,[5]; [8],0.24 ± 0.03
same,IL-10 Mean ± S.E.M.,[5]; [8],0.086 ± 0.01
same,IL-15 Mean ± S.E.M.,[5]; [8],0.11 ± 0.02
same,LEPTIN Mean ± S.E.M.,[5]; [8],0.43 ± 0.11
same,MCP-1 Mean ± S.E.M.,[5]; [8],0.10 ± 0.02
same,MIP-1 alpha Mean ± S.E.M.,[5]; [8],0.08 ± 0.02
same,Rantes (CCL5) Mean ± S.E.M.,[5]; [8],0.18 ± 0.02
same,SCF Mean ± S.E.M.,[5]; [8],0.32 ± 0.07
same,TNF-alpha Mean ± S.E.M.,[5]; [8],0.18 ± 0.02
same,VEGF Mean ± S.E.M.,[5]; [8],0.21 ± 0.03

# From patent US20210161890A1, “COMPOSITIONS AND METHODS FOR TREATING BRAIN DYSFUNCTION” (BACH PHARMA, INC., priority 2015, published 2021)
